Patent US20170202792A1, “METHOD FOR TREATING TAU-ASSOCIATED DISEASES” (NATIONAL TAIWAN NORMAL UNIVERSITY, priority 2016, published 2017)

How the values were obtained:
HSPB1 = experiment: Western blot of HSPB1 expression in tauRD-DsRed SH-SY5Y cells; assay type: cell-based, human; conditions: untreated = 100%
Source text: (§1) Furthermore, chaperones are molecules essential for proper protein folding which play a key role in protein-folding disorders in central nervous system. […] Moreover, the upregulation of endoplasmic reticulum chaperones such as glucose-regulated protein, 78 kDa (GRP78) is a cellular protective response against AD (Hoshino et al., 2007. Endoplasmic reticulum chaperones inhibit the production of amyloid-(3 peptides. Biochem. J. 402, 581-589). Accordingly, the GRP78 and HSPB1 expression in tauRD-DsRed SH-SYSY cells treated by Congo red and compound (I) with or without doxycycline were analyzed.
(§2) Western blotting analysis was applied for examining the expressions of HSPB1 and GRP78, the method was as follows: total proteins were extracted using RIPA buffer, which comprised 50 mM Tris-HCl, 150 mM NaCl, 1 mM EDTA, 1 mM EGTA, 0.1% SDS, 0.5% sodium deoxycholate, 1% Triton X-100, and a protease inhibitor cocktail (Calbiochem). […] Next, immunoreactive bands were detected using horseradish peroxidase-conjugated goat anti-mouse, goat anti-rabbit, or donkey anti-goat IgG antibodies (1:5000; GeneTex) and chemiluminescent substrate (Millipore).

GRP78 = experiment: Western blot of GRP78 expression in tauRD-DsRed SH-SY5Y cells; assay type: cell-based, human; conditions: untreated = 100%
Source text: as §1, §2

[1] = tested on: GSK-3β (total and p-Ser9); experiment: Western blot of total and phosphorylated GSK-3β in tauRD-DsRed SH-SY5Y cells; assay type: cell-based, human
Method: Western blotting analysis was applied for examining the expressions of HSPB1 and GRP78, the method was as follows: total proteins were extracted using RIPA buffer, which comprised 50 mM Tris-HCl, 150 mM NaCl, 1 mM EDTA, 1 mM EGTA, 0.1% SDS, 0.5% sodium deoxycholate, 1% Triton X-100, and a protease inhibitor cocktail (Calbiochem). […] of total proteins were separated on 10% SDS-PAGE gels and blotted onto nitrocellulose membrane which were stained (4° C., overnight) with antibodies against DsRed (1:500; Santa Cruz), HSPB1 (1:500; Santa Cruz), and GRP78 (1:200; Santa Cruz). Next, immunoreactive bands were detected using horseradish peroxidase-conjugated goat anti-mouse, goat anti-rabbit, or donkey anti-goat IgG antibodies (1:5000; GeneTex) and chemiluminescent substrate (Millipore).
The methods of cell culture and western blot analysis are similar to that described above, except that the antibodies against GSK-3β (total and p-Ser9) (1:1000; Cell Signaling), total tau (1:500; Dako), p-tau (Ser202) (1:500; AnaSpec), p-tau (Thr231 and Ser396) (1:1000; Invitrogen), [3-actin (1:5000; Millipore), or GAPDH (1:2000; MDBio) were used herein for evaluation of the expression levels thereof in the cells.

[2] = Body weight monitoring in STZ 3×Tg-AD mice; assay type: in vivo, mouse; conditions: 0.25 mg/kg i.p. daily 28 days; NBG vs HBG groups treated with compound (I)
Method: (§3) Hyperglycemia was induced by streptozotocin (STZ) to accelerated Alzheimer's disease progression of 6-month-old male transgenic 3×Tg−AD mice. Half of the 3×Tg−AD mice (n=30) received STZ (100 mg/kg) intraperitoneal injection at days 1, 2, 8, and 9 respectively as the high blood glucose group (HBG); another half of the 3×Tg-AD mice (n=30) received sodium citrate (0.1 M) at the same time points as the normal blood glucose group (NBG). Then, HBG and NBG were divided into two groups respectively to give four groups such as NBG-compound (I), HBG-compound (I), NBG-DMSO, and HBG-DMSO with n=15 in each group; wherein 0.25 mg/kg of compound (I) (in 30 μL) were intraperitoneal injected into those mice of NBG-compound (I) and HBG-compound (I) groups daily since day 14 for 28 days, and 30 μL of DMSO solvent were intraperitoneal injected into those mice of NBG-DMSO and HBG-DMSO groups daily since day 14 for 28 days. Both mouse body weight (BW) and blood glucose (BG) were monitored every week.

GSK-3β = experiment: Western blot of mouse hippocampal tissue, GSK-3β; assay type: in vivo; conditions: hyperglycemic 3×Tg-AD mice; 0.25 mg/kg i.p. daily
Method: (§4) Hyperglycemia was induced by streptozotocin (STZ) to accelerated Alzheimer's disease progression of 6-month-old male transgenic 3×Tg−AD mice. Half of the 3×Tg−AD mice (n=30) received STZ (100 mg/kg) intraperitoneal injection at days 1, 2, 8, and 9 respectively as the high blood glucose group (HBG); another half of the 3×Tg-AD mice (n=30) received sodium citrate (0.1 M) at the same time points as the normal blood glucose group (NBG). […] Both mouse body weight (BW) and blood glucose (BG) were monitored every week.
Mice were sacrificed after MWM and hippocampi were isolated for analyzing several protein expression levels by means of western blot. The protein of the hippocampi was quantified by BCA assay (Pierce), wherein 25 μg of protein was separated by SDS-PAGE and then transferred to PVDF film. Next, protein was blocked for reducing non-specific signals, and reacted with primary antibodies (GSK-3β, pS9-GSK-3β (non-activated), pT216-GSK-3β(activated), pS202Tau, pS396Tau, pT231Tau, HT7 (total Tau)), and secondary antibodies (anti-rabbit, anti-mouse IgG HRP-linked antibody; 1:10,000; Amersham Pharmacia Biotech). β-actin was used as the loading control, ECL kit was used to detect the antigen-antibody complex, and LAS-4000 (Fujifilm) was used for imaging and quantification.

Aβ40, Aβ42 = experiment: Immunohistochemical staining of Aβ in brain tissue; assay type: in vivo, mouse; conditions: 0.25 mg/kg i.p. daily 28 days
Method: as §3
After the brain tissue of the mice was fixed and dehydrated, the tissue was cryosectioned (30 μm). The cryosections were then washed with phosphate buffered saline (PBS) for three times. After the optimal cutting temperature compound (OCT) was removed, 3% H2O2 was used to remove the endogenous peroxidase, and the cryosections were blocked by the blocking solution for 1 hour to reduce the non-specific antigen reactions. The primary antibodies (Aβ40, Aβ42) were added and reacted for 12 hours, the secondary antibody (1:200 dilution in blocking solution, Vecter) was added and reacted for 1 hour, and then, the avidin-biotin complex was added and reacted for 1 hour. Finally, DAB-kit was used for coloring. All the stained sections were attached to the slides, dried, dehydrated, and mounted for imaging and quantification (Image Pro Plus). The quantification results were shown in Table 1, wherein ↑, ↓:p<0.05; ↑↑, ↓↓:p<0.01.

IL-6 and TNF-α = experiment: Content analysis of IL-6 and TNF-α in serum (ELISA); assay type: in vivo, mouse; conditions: both normal and high blood glucose groups; 0.25 mg/kg i.p. daily
Method: as §4
Additionally, the peripheral inflammatory cytokine in four groups of mice were evaluated. The collected blood was centrifuged (2000×g) for 20 minutes at 4° C., and the supernatant was analyzed using mouse TNF-α ELISA kit and IL-6 ELISA kit (R&D system). OD450 nm absorbance was detected by ELISA reader, and the concentration of IL-6 and of TNF-α were obtained by interpolating the standard curve and shown in FIG. 11, wherein *p<0.05. […]

[3] = HBG (high blood glucose, STZ) 3×Tg-AD mice
[4] = NBG (normal blood glucose) 3×Tg-AD mice

CCCCC/C=C\C/C=C\C/C=C\C/C=C\CCCC(=O)Nc1ccc(O)cc1 [compound (I), (5Z, 8Z, 11Z,14Z)-N-(4-Hydroxyphenyl)icosa-5 ,8 , 11,14-tetraen amide]
expression of HSPB1 relative to untreated cells (HSPB1): 174%
expression of GRP78 relative to untreated cells (GRP78): 189%
GSK-3β expression [1]: down-regulated
expression level of phosphorylated GSK-3β [1]: increased
body weight (BW) [2]: no significant difference in BW
GSK-3β inhibition in hippocampus (pT216-GSK-3β/GSK-3β, pS9-GSK-3β/GSK-3β) (GSK-3β): exerts inhibition for GSK-3β
Aβ40 staining quantification (Aβ40, Aβ42; [3]): 164.78 ± 9.51↓↓
Aβ42 staining quantification (Aβ40, Aβ42; [3]): 26.91 ± 1.28↓
Aβ40 staining quantification (Aβ40, Aβ42; [4]): 181.88 ± 4.17
Aβ42 staining quantification (Aβ40, Aβ42; [4]): 29.13 ± 0.64
IL-6 level in serum (IL-6 and TNF-α): down-regulated
TNF-α level in serum (IL-6 and TNF-α): down-regulated
